Experimental data taken from patent US10111935B2, “Agent for capturing tumor cells and methods of use thereof” (priority 2014, dated 2018).
Where two headings read alike, the source gives them in different places.

System: SKOV3 cells
Assay: IC50 concentration of standard ovarian cancer chemotherapy
Assay type: cell-based

Question: With `N.N.O=C([O-])C1(C(=O)[O-])CCC1.[Pt+2]` [Carboplatin] as the compound, how does the IC50 (Carboplatin individually, read-out: IC50) read?
Answer: The IC50 was 10 µM.

Question: And the IC50 (Carboplatin part of the combination, read-out: IC50 in combination Paclitaxel+Carboplatin)?
Answer: Its IC50 is 1 µM.
